Target: T1, Bcl-2 protein (Recombinant Human Bcl-2 Protein) (Homo sapiens, UniProt P10415)
T1 construct: purchased Novus NBP2-34889
Assay: Binding evaluation of mixture library compounds to Bcl-2 using AS-MS (affinity selection mass spectrometry)
Settings: for ASMS ratio (%) n = 1 / ASMS ratio (%) n = 2: ASMS Ratio(%)=(A−C)/B×100; for ASMS ratio (%) n = 1: replicate n = 1; for ASMS ratio (%) n = 2: replicate n = 2
Method in brief: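 Readout is ASMS Ratio (%), (A−C)/B×100, from reversed-phase LC/MS of SEC-passed extracts, with protein-free unfiltered standard (B) and protein-free SEC blank (C). Recombinant human Bcl-2 at 20 μM final met ~1200 pooled compounds at […] each for 1 h, 23° C., dark, in Tris-HCl pH 7.4 buffer.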

[1] = AS-MS, mixture of 1200 compounds, Bcl-2
[2] = AS-MS on the mixture of 1200 library compounds

T1 sequence (P10415 whole entry): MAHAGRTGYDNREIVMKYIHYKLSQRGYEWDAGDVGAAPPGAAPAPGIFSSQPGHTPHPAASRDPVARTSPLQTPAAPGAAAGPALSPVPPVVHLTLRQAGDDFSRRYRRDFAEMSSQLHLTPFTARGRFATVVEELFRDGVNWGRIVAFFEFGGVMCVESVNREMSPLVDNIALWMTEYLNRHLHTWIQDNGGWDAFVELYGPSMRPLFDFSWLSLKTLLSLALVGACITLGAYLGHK

Row | Structure (SMILES) | ASMS ratio (%) n = 1 [1] | ASMS ratio (%) n = 2 [1] | ASMS ratio (%) (n = 1) | ASMS ratio (%) (n = 2) | further results
1 | CCOc1cncc(C#Cc2cc(C(=O)N3CCN(c4ccc(C(=O)NCC(F)(F)F)nn4)CC3)cc(C(F)(F)F)c2)c1 [B1K020-01, 6-[4-[3-[2-(5-Ethoxypyridin-3-yl)ethynyl]-5-(trifluoromethyl)benzoyl]piperazin-1-yl]-N-(2,2,2-trifluoroethyl)pyridazine-3-carboxamide] | 2.9% | −3.8% |  |  | 
2 | CCOc1cncc(-c2ccccc2CN2CCN(c3ccc(C(=O)N(C)CC45CC6CC(CC(C6)C4)C5)nn3)CC2)c1 [B3A072-01, N-(1-Adamantylmethyl)-6-[4-[[2-(5-ethoxypyridin-3-yl)phenyl]methyl]piperazin-1-yl]-N-methylpyridazine-3-carboxamide] |  |  |  |  | ASMS ratio (%) n = 1 [2]: 11.6%; ASMS ratio (%) n = 2 [2]: 3.1%
3 | CCOc1cccc(-c2ccc(CN3CCN(c4ccc(C(=O)NS(C)(=O)=O)nn4)CC3)c(CC)c2)c1 [B2I075-01] |  |  | 0.0% | 0.0% | 
4 | CCOc1cccc(-c2ccc(C(=O)N3CCN(c4ccc(C(=O)NS(C)(=O)=O)cc4)CC3)c3ccccc23)c1 [B2I035-01, 4-[4-[4-(3-Ethoxyphenyl)naphthalene-1-carbonyl]piperazin-1-yl]-N-methylsulfonylbenzamide] |  |  |  |  | ASMS ratio (%) n = 1 (AS-MS, mixture library, Bcl-2): 0.0%; ASMS ratio (%) n = 2 (AS-MS, mixture library, Bcl-2): 1.6%
5 | CCOc1cccc(-c2csc(CN3CCN(c4ccc(C(=O)NCC(F)(F)F)nn4)CC3)c2)c1 [B1K093-01, 6-[4-[[4-(3-Ethoxyphenyl)thiophen-2-yl]methyl]piperazin-1-yl]-N-(2,2,2-trifluoroethyl)pyridazine-3-carboxamide] | 2.7% | −0.4% |  |  | 
6 | CCOc1cccc(-c2ccccc2CCC(=O)N2CCN(c3ccc(C(=O)NS(C)(=O)=O)nn3)CC2)c1 [B2I011-01, 6-[4-[3-[2-(3-Ethoxyphenyl)phenyl]propanoyl]piperazin-1-yl]-N-methylsulfonylpyridazine-3-carboxamide] |  |  |  |  | ASMS ratio (%) n = 1 (AS-MS, mixture library, Bcl-2): 0.0%; ASMS ratio (%) n = 2 (AS-MS, mixture library, Bcl-2): 0.0%
7 | CCOc1cccc(-c2ccc(C(=O)N3CCN(c4ccc(C(=O)NS(=O)(=O)CC56CC7CC(CC(C7)C5)C6)nn4)CC3)cc2F)c1 [B2A005-01, N-(1-Adamantylmethylsulfonyl)-6-[4-[4-(3-ethoxyphenyl)-3-fluorobenzoyl]piperazin-1-yl]pyridazine-3-carboxamide] |  |  |  |  | ASMS ratio (%) n = 1 (AS-MS, mixture library, Bcl-2): 4.7%; ASMS ratio (%) n = 2 (AS-MS, mixture library, Bcl-2): 12.4%
8 | CCOc1cccc(C#Cc2cncc(C(=O)N3CCN(c4ccc(C(=O)NCC56CC7CC(CC(C7)C5)C6)nn4)CC3)c2)c1 [B1A009-01, N-(1-Adamantylmethyl)-6-[4-[5-[2-(3-ethoxyphenyl)ethynyl]pyridine-3-carbonyl]piperazin-1-yl]pyridazine-3-carboxamide] | 3.0% | 0.0% |  |  | 

More lines, main results first:

Row | ASMS ratio (%) n = 1 [1] | ASMS ratio (%) n = 2 [1] | ASMS ratio (%) (n = 1) | ASMS ratio (%) (n = 2) | Structure (SMILES) | further results
9 |  |  | 0.8% | 1.4% | CCOc1cccc(-c2ccc(C(C)N3CCN(c4ccc(C(=O)NS(C)(=O)=O)cc4)CC3)cc2)c1 (stereo not drawn) [B2I097-01, 4-[4-[1-[4-(3-Ethoxyphenyl)phenyl]ethyl]piperazin-1-yl]-N-methylsulfonylbenzamide] | 
10 | 77.3% | 46.1% |  |  | CCCNC(=O)c1ccc(N2CCN(Cc3ccc(-c4cncc(OCC)c4)cc3CC)CC2)cc1 [B1M075-01] | 
11 |  |  | 8.2% | 4.6% | CCOc1cccc(-c2cc(CN3CCN(c4ccc(C(=O)NS(=O)(=O)c5ccc(NCCSc6ccccc6)c(C(F)(F)F)c5)cc4)CC3)cc(OC(F)(F)F)c2)c1 [B2R063-01, 4-[4-[[3-(3-Ethoxyphenyl)-5-(trifluoromethoxy)phenyl]methyl]piperazin-1-yl]-N-[4-(2-phenylsulfanylethylamino)-3-(trifluoromethyl)phenyl]sulfonylbenzamide] | 
12 |  |  | 0.0% | 0.0% | CCOc1cccc(-c2ccc(CN3CCN(c4ccc(C(=O)NS(=O)(=O)CCC(F)(F)F)nn4)CC3)cc2F)c1 [B2N077-01, 6-[4-[[4-(3-Ethoxyphenyl)-3-fluorophenyl]methyl]piperazin-1-yl]-N-(3,3,3-trifluoropropylsulfonyl)pyridazine-3-carboxamide] | 
